According to US8039474B2, “2,3,4,9-tetrahydro-1H-carbazole derivatives as CRTH2 receptor antagonists” (Actelion Pharmaceutical Ltd., priority 2004, dated 2011):

Key:
[1] = biological target: T1, hCRTH2 receptor (Homo sapiens, UniProt Q9Y5Y4); experiment: Intracellular calcium mobilization assay (FLIPR), PGD2 challenge; format: cell-based; settings: HEK-293 cells stably expressing hCRTH2; 10 nM prostaglandin D2 as agonist
T1 construct: expressed in transfected cells
T1 sequence (Q9Y5Y4 1-395): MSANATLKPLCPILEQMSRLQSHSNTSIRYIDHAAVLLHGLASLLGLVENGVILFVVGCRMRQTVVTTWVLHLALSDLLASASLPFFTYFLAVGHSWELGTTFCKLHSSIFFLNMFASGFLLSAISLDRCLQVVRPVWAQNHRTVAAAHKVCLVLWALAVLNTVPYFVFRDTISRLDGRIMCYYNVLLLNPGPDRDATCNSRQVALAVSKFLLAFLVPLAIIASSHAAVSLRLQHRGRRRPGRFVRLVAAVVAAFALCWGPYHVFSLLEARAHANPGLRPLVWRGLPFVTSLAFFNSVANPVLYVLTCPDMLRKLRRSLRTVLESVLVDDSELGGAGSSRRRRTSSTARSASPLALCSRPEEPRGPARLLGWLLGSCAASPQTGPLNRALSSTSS
Procedure: A functional assay with cells expressing the human CRTH2 receptor may be used to detect changes in the levels of intracellular calcium concentration following compound treatment. After addition of the compound the cells are challenged with PGD2. In a Fluorescent Imaging Plate Reader (FLIPR™, Molecular Devices, Sunnyvale, Calif.) fluorescence emission is recorded during both additions, emission peak values above base level after PGD2 addition were exported, normalized to low controls (no PGD2) and high controls (no active compound). The relative values of the remaining activity were used to determine IC50 values by curve fitting the data to a single site to a four-parameter logistic sigmoid dose response curve of the equation (A+((B−A)/(1+((C/x)^D)))).
Cells (HEK-293), stably expressing the hCRTH2 receptor under the control of the cytomegalovirus promotor from a single insertion of the expression vector pcDNA5 (Invitrogen), are grown to confluency in DMEM (low glucose, Gibco) medium supplemented with 10% fetal calf serum (both Bioconcept, Switzerland) under standard mammalian cell culture conditions (37° C. in a humidified atmosphere of 5% CO2). Cells are detached from culture dishes using a dissociation buffer (0.02% EDTA in PBS, Gibco) for 1 min, and collected by centrifugation at 200 g at rt for 5 min in assay buffer (equal parts of Hank's BSS (HBSS, Bioconcept) and DMEM (low glucose, without phenol red, Gibco)). After incubation for 45 min (37° C. and 5% CO2) in the presence of 1 μM Fluo-4 and 0.04% Pluronic F-127 (both Molecular Probes), 20 mM HEPES (Gibco) in assay buffer, the cells are washed with and resuspended in assay buffer, then seeded onto 384-well FLIPR assay plates (Greiner) at 50,000 cells in 66 μl per well, and sedimented by centrifugation.
Stock solutions of test compounds are made up at a concentration of 10 mM in DMSO, and serially diluted in assay buffer to concentrations required for inhibition dose response curves. Prostaglandin D2 (Biomol, Plymouth Meeting, Pa.) is used as an agonist.
A FLIPR384 instrument (Molecular Devices) is operated according to the manufacturer's standard instructions, adding 4 μl of test compound dissolved at 10 mM in DMSO and diluted prior to the experiment in assay buffer to obtain the desired final concentration. 10 μl of 80 nM prostaglandin D2 (Biomol, Plymouth Meeting, Pa.) in assay buffer, supplemented with 0.8% bovine serum albumin (fatty acid content<0.02%, Sigma), is then added to obtain a final concentration of 10 nM and 0.1%, respectively. Changes in fluorescence are monitored before and after the addition of test compounds at λex=488 nm and λem=540 nm. Emission peak values above base level after prostaglandin D2 addition are exported after base line subtraction. Values are normalized to high-level control (no test compound added) after subtraction of base line value (no prostaglandin D2 added). The program XL1fit 3.0 (IDBS) is used to fit the data to a single site dose response curve of the equation (A+((B−A)/(1+((C/x)^D)))) and to calculate the IC50 values.

[2] = biological target: T1, hCRTH2 receptor; experiment: CRTH2 membranes radioligand binding assay ({3H}-PGD2); settings: {3H}-PGD2 2.5 nM; membranes of HEK 293 cells expressing recombinant hCRTH2; read-out: hCRTH2 BDG IC50
Procedure: Cells are detached from culture plates in 5 ml buffer A (5 mM Tris, 1 mM MgCl2×6 H2O, 0.1 mM PMSF, 0.1 mM phenanthroline) per plate using a police rubber and transferred into centrifugation tubes and frozen at −80° C. After thawing, the cells are centrifuged at 500 g for 5 min and then resuspended in buffer A. Cells are then fragmented by homogenization with a Polytron homogenizer for 30 s. The membrane fragments are centrifuged at 3000 g for 40 min and resuspended in membranes in buffer B (50 mM Tris, 25 mM MgCl2, 250 mM saccharose, pH 7.4) and aliquots are stored frozen.
Binding assay is performed in a total volume of 250 μl. […] For unspecific binding, PGD2 is added to the reaction mixture at 1 μM final concentration. This binding assay mix is incubated at rt for 90 min and then filtered through a GF/C filter plate. The filter is washed three times with ice cold binding buffer. Then, 40 μl per well Microscint-40 (Packard) are added and the bound radioactivity is quantified by means of Topcount (Packard).

Structure (SMILES) | IC50 [1] [nM] | IC50 [2] [nM]
CN(C(=O)C1CCc2c(c3cc([N+](=O)[O-])ccc3n2CC(=O)O)C1)c1ccccc1 (racemic) [(±)-[3-(Methyl-phenyl-carbamoyl)-6-nitro-1,2,3,4-tetrahydro-carbazol-9-yl]-acetic acid] | 11 | 
CN(C(=O)C1CCc2c(c3ccccc3n2CC(=O)O)C1)c1ccccc1C(F)(F)F (racemic) [Example A-37, (±)-{3-[Methyl-(2-trifluoromethyl-phenyl)-carbamoyl]-1,2,3,4-tetrahydro-carbazol-9-yl}-acetic acid] | 45 | 
O=C(O)Cn1c2c(c3ccccc31)CC(C(=O)N1CCc3ccccc31)CC2 (racemic) [Example A-39, (±)-[3-(2,3-Dihydro-indole-1-carbonyl)-1,2,3,4-tetrahydro-carbazol-9-yl]-acetic acid] |  | 2
CN(C(=O)C1CCc2c(c3ccccc3n2CC(=O)O)C1)C(c1ccccc1)c1ccccc1 (racemic) [Example A-42, (±)-[3-(Benzhydryl-methyl-carbamoyl)-1,2,3,4-tetrahydro-carbazol-9-yl]-acetic acid] | 17 | 
CN(C(=O)C1(C)CCc2c(c3ccccc3n2CC(=O)O)C1)c1ccccc1 (racemic) [Example B-01, (±)-[3-Methyl-3-(methyl-phenyl-carbamoyl)-1,2,3,4-tetrahydro-carbazol-9-yl]-acetic acid] | 13 | 3
CC1(C(=O)N(Cc2ccccc2)c2ccccc2)CCc2c(c3ccccc3n2CC(=O)O)C1 (racemic) [Example B-04, (±)-[3-(Benzyl-phenyl-carbamoyl)-3-methyl-1,2,3,4-tetrahydro-carbazol-9-yl]-acetic acid] |  | 3
CC1(C(=O)N(Cc2ccsc2)c2ccccc2)CCc2c(c3ccccc3n2CC(=O)O)C1 (racemic) [Example B-07, (±)-[3-Methyl-3-(phenyl-thiophen-3-ylmethyl-carbamoyl)-1,2,3,4-tetrahydro-carbazol-9-yl]-acetic acid] |  | 2
CN(C(=O)C1(C)CCc2c(c3ccccc3n2CC(=O)O)C1)c1cccc(Cl)c1 (racemic) [Example B-10, (±)-{3-[(3-Chloro-phenyl)-methyl-carbamoyl]-3-methyl-1,2,3,4-tetrahydro-carbazol-9-yl}-acetic acid] | 20 | 1
CCC1(C(=O)N2CCc3ccccc32)CCc2c(c3ccccc3n2CC(=O)O)C1 (racemic) [Example B-22, (±)-[3-(2,3-Dihydro-indole-1-carbonyl)-3-ethyl-1,2,3,4-tetrahydro-carbazol-9-yl]-acetic acid] | 67 | 
CCCC1(C(=O)Nc2cccc(F)c2)CCc2c(c3ccccc3n2CC(=O)O)C1 (racemic) [Example B-32, (±)-[3-(3-Fluoro-phenylcarbamoyl)-3-propyl-1,2,3,4-tetrahydro-carbazol-9-yl]-acetic acid] |  | 22
CC1(C(=O)N(CCC#N)Cc2ccccc2)CCc2c(c3ccccc3n2CC(=O)O)C1 (racemic) [Example B-56, (±)-{3-[Benzyl-(2-cyano-ethyl)-carbamoyl]-3-methyl-1,2,3,4-tetrahydro-carbazol-9-yl}-acetic acid] | 36 | 
CC1(C(=O)NCc2cc(F)cc(F)c2)CCc2c(c3ccccc3n2CC(=O)O)C1 (racemic) [Example B-68, (±)-[3-(3,5-Difluoro-benzylcarbamoyl)-3-methyl-1,2,3,4-tetrahydro-carbazol-9-yl]-acetic acid] |  | 19

Now from value to molecule:

IC50 [1] [nM] | IC50 [2] [nM] | Structure (SMILES)
28 |  | O=C(O)Cn1c2c(c3cc(F)ccc31)CC(C(=O)N1CCc3ccccc31)CC2 (single isomer, unassigned; (+)) [(+)-[3-(2,3-Dihydro-indole-1-carbonyl)-6-fluoro-1,2,3,4-tetrahydro-carbazol-9-yl]-acetic acid]
46 |  | O=C(O)Cn1c2c(c3cc(F)ccc31)CC(C(=O)N1CCCCCCC1)CC2 (single isomer, unassigned; (+)) [(+)-[3-(Azocane-1-carbonyl)-6-fluoro-1,2,3,4-tetrahydro-carbazol-9-yl]-acetic acid]
 | 3 | CC(C)N(Cc1ccccc1)C(=O)C1CCc2c(c3cc(F)ccc3n2CC(=O)O)C1 (single isomer, unassigned; (+)) [(+)-[3-(Benzyl-isopropyl-carbamoyl)-6-fluoro-1,2,3,4-tetrahydro-carbazol-9-yl]-acetic acid]
 | 67 | CC(C)N(Cc1ccccc1)C(=O)C1CCc2c(c3cc(F)ccc3n2CC(=O)O)C1 (single isomer, unassigned; (-)) [(−)-[3-(Benzyl-isopropyl-carbamoyl)-6-fluoro-1,2,3,4-tetrahydro-carbazol-9-yl]-acetic acid]
599 |  | O=C(O)Cn1c2c(c3cc(F)ccc31)CC(C(=O)N1CCN(c3ccc(F)cc3)CC1)CC2 (single isomer, unassigned; (-)) [(−)-{6-Fluoro-3-[4-(4-fluoro-phenyl)-piperazine-1-carbonyl]-1,2,3,4-tetrahydro-carbazol-9-yl}-acetic acid]
